Patent publication US5681832A, “Aroylaniline compounds, pharmaceutical compositions, and methods of using same to inhibit viral activity” (priority 1995, dated 1997)
Counter-ions that a name gives are not always drawn. Like-named read-outs stand apart in the source and are kept apart here.

How the values were obtained:
[1] = system: T4 lymphocytes (CEM cell line); assay: toxicity control: survival of uninfected T4 lymphocytes (CEM cell line) treated with compound (growth inhibition); assay type: cell-based; conditions: for IC50: uninfected CEM cells, 6 days, read-out: IC50 (Molar)
Experimental: (§1) 1. Candidate agent is dissolved in dimethyl sulfoxide (unless otherwise instructed) and then diluted 1:100 in cell culture medium before preparing serial half-log10 dilutions which are then to 96-well microfilter plates. T4 lymphocytes (CEM cell line) are added, and after a brief interval HIV-1 is added to all wells, resulting in a 1:200 final dilution […]. Uninfected cells with the compound serve as a toxicity control, and infected and uninfected cells without the compound serve as basic controls.
(§2) 2. Cultures are incubated at 37° C. in a 5% carbon dioxide atmosphere for 6 days.
(§3) 3. The tetrazolium salt, XTT, is added to all wells, and cultures are incubated to allow formazan color development by viable cells.
(§4) 4. Individual wells are analyzed spectrophotometrically to quantitate formazan production, and in addition are viewed microscopically for detection of viable cells and confirmation of protective activity.
(§5) 5. Drug-tested virus-infected cells are compared with drug-treated noninfected cells and with other appropriate controls (untreated infected and untreated noninfected cells, drug-containing wells without cells, etc.) on the same plate.
(§6) FIGS. 1 to 6 display a plot of the log10 of the concentrations (as μg/mL or molar as shown) of the aroylaniline compounds, Compounds 1, 3, 13, 14, 29 and 32, against the measured test values expressed as a percentage of the uninfected, untreated control values. The solid line depicts the percentage of surviving HIV-infected cells treated with sample (at the indicated concentration) relative to uninfected, untreated controls. Thus, the solid line expresses the anti-HIV activity of the compound. The dashed line depicts the percentage of surviving uninfected cells treated with the compound relative to the same uninfected, untreated controls. Thus, the dashed line expresses the growth inhibitory properties of the compound. The viral cytopathic effect […] is indicated by a dotted reference line. […] Survival values of this parameter less than 50% are considered acceptable in the current protocol. Approximate values for 50% effective concentration (EC50) have been calculated for each test and are set forth for these Compounds in Tables 2-7, respectively.

HIV-1 = assay: in vitro anti-HIV screening (NCI XTT soluble-formazan assay, protection of HIV-1-infected CEM T4 lymphocytes from cytolysis); assay type: cell-based; conditions: for EC50: HIV-1-infected CEM cells, 6 days, approximate values, read-out: EC50 (Molar), 50% effective concentration; for Conclusion: NCI anti-HIV screen
Excerpt: The aroylaniline compounds of the present invention were subjected to in vitro screening to determine their anti-HIV activity.
The National Cancer Institute's procedure for testing for agents active against Human Immunodeficiency Virus (HIV) (Weislow, O. W. et al., "New soluble-formazan assay for HIV-1 cytopathic effects: application to high-flux screening of synthetic and natural products for AIDS-antiviral activity," J. Natl Cancer Inst., 81, 577-586 (1989)) is designed to detect agents acting at any stage of the virus reproductive cycle. The assay includes the killing of T4 lymphocytes by HIV. Pursuant to the test, small amounts of HIV are added to cells, and a complete cycle of virus reproduction is necessary to obtain the required cell killing. Agents that interact with virions, cells, or virus gene-products to interfere with viral activities will protect cells from cytolysis. The system is thus designed to detect anti-HIV activity. However, compounds that are chemically labile or are rapidly metabolized in the culture conditions may not show activity in this screen. All tests are compared with at least one positive (e.g., AZT-treated) control done at the same time under identical conditions.
as §1, §2, §3, §4, §5
6. Data are reviewed in comparison with other tests done at the same time and a determination about activity is made.
The aroylaniline compounds of the present invention were tested for anti-HIV activity according to the above procedure. FIGS. 1-6 represent test results of the aroylaniline compounds of Compounds 1, 3, 13, 14, 29 and 32.
as §6

O=C(Nc1ccc(/C=C/c2ccc(NC(=O)c3cc(S(=O)(=O)O)c4cccnc4c3O)cc2S(=O)(=O)O)c(S(=O)(=O)O)c1)Nc1ccc(/C=C/c2ccc(NC(=O)c3cc(S(=O)(=O)O)c4cccnc4c3O)cc2S(=O)(=O)O)c(S(=O)(=O)O)c1 [Compound 3, 1,3-di[2,2'-disulfo-4(8-hydroxy-5-sulfo-7-quinoline)]stilbene urea, hexasodium salt]
IC50 ([1]; Homo sapiens, CCRF-CEM, 144 h): > 50 µM | activity at 15.8 µM ([1]; Homo sapiens, CCRF-CEM, 1.58 × 10^-5 Molar, read-out: Percent of Control, Uninfected): 103% | activity at 1.58 µM ([1]; Homo sapiens, CCRF-CEM, 1.58 × 10^-6 Molar, read-out: Percent of Control, Uninfected): 95.7% | activity at 0.158 µM ([1]; Homo sapiens, CCRF-CEM, 1.58 × 10^-7 Molar, read-out: Percent of Control, Uninfected): 94.4% | activity at 0.0158 µM ([1]; Homo sapiens, CCRF-CEM, 1.58 × 10^-8 Molar, read-out: Percent of Control, Uninfected): 111% | activity at 50 µM ([1]; Homo sapiens, CCRF-CEM, 5.00 × 10^-5 Molar, read-out: Percent of Control, Uninfected): 98% | activity at 5 µM ([1]; Homo sapiens, CCRF-CEM, 5.00 × 10^-6 Molar, read-out: Percent of Control, Uninfected): 97% | activity at 0.501 µM ([1]; Homo sapiens, CCRF-CEM, 5.01 × 10^-7 Molar, read-out: Percent of Control, Uninfected): 97.7% | activity at 0.0502 µM ([1]; Homo sapiens, CCRF-CEM, 5.02 × 10^-8 Molar, read-out: Percent of Control, Uninfected): 95.8% | EC50 (HIV-1; Human immunodeficiency virus 1, CCRF-CEM, 144 h): 4.06 µM | inhibition at 15.8 µM (HIV-1; Human immunodeficiency virus 1, CCRF-CEM, 1.58 × 10^-5 Molar, read-out: Percent of Protection): 92.9% | inhibition at 1.58 µM (HIV-1; Human immunodeficiency virus 1, CCRF-CEM, 1.58 × 10^-6 Molar, read-out: Percent of Protection): 0.19% | inhibition at 0.158 µM (HIV-1; Human immunodeficiency virus 1, CCRF-CEM, 1.58 × 10^-7 Molar, read-out: Percent of Protection): -1.29% | inhibition at 0.0158 µM (HIV-1; Human immunodeficiency virus 1, CCRF-CEM, 1.58 × 10^-8 Molar, read-out: Percent of Protection): 0.19% | inhibition at 50 µM (HIV-1; Human immunodeficiency virus 1, CCRF-CEM, 5.00 × 10^-5 Molar, read-out: Percent of Protection): 90.8% | inhibition at 5 µM (HIV-1; Human immunodeficiency virus 1, CCRF-CEM, 5.00 × 10^-6 Molar, read-out: Percent of Protection): 61.1% | inhibition at 0.501 µM (HIV-1; Human immunodeficiency virus 1, CCRF-CEM, 5.01 × 10^-7 Molar, read-out: Percent of Protection): 2% | inhibition at 0.0502 µM (HIV-1; Human immunodeficiency virus 1, CCRF-CEM, 5.02 × 10^-8 Molar, read-out: Percent of Protection): 0.51% | activity at 15.8 µM (HIV-1; Human immunodeficiency virus 1, CEM-T4, 1.58 × 10^-5 Molar, read-out: Percent of Control, Infected): 93.2% | activity at 1.58 µM (HIV-1; Human immunodeficiency virus 1, CEM-T4, 1.58 × 10^-6 Molar, read-out: Percent of Control, Infected): 4.18% | activity at 0.158 µM (HIV-1; Human immunodeficiency virus 1, CEM-T4, 1.58 × 10^-7 Molar, read-out: Percent of Control, Infected): 2.76% | activity at 0.0158 µM (HIV-1; Human immunodeficiency virus 1, CEM-T4, 1.58 × 10^-8 Molar, read-out: Percent of Control, Infected): 4.18% | activity at 50 µM (HIV-1; Human immunodeficiency virus 1, CEM-T4, 5.00 × 10^-5 Molar, read-out: Percent of Control, Infected): 91.1% | activity at 5 µM (HIV-1; Human immunodeficiency virus 1, CEM-T4, 5.00 × 10^-6 Molar, read-out: Percent of Control, Infected): 62.7% | activity at 0.501 µM (HIV-1; Human immunodeficiency virus 1, CEM-T4, 5.01 × 10^-7 Molar, read-out: Percent of Control, Infected): 5.92% | activity at 0.0502 µM (HIV-1; Human immunodeficiency virus 1, CEM-T4, 5.02 × 10^-8 Molar, read-out: Percent of Control, Infected): 4.49% | TI50 (IC/EC), therapeutic index (HIV-1; IC50/EC50): > 1.23 × 10^+1 | Conclusion (HIV-1): CONFIRMED ACTIVE

N,N'-Bis(4-amino-2-sulfobenzoyl)-4,4'-diaminostilbene-2,2-disulfonic acid tetrasodium salt [Compound 32]
Percent of Control, Uninfected ([1]; 2.00 × 10^-4 Molar): 35.45% | Percent of Control, Uninfected ([1]; 2.00 × 10^-5 Molar): 98.84% | Percent of Control, Uninfected ([1]; 2.01 × 10^-6 Molar): 98.97% | Percent of Control, Uninfected ([1]; 2.01 × 10^-7 Molar): 82.40% | Percent of Control, Uninfected ([1]; 6.33 × 10^-5 Molar): 95.50% | Percent of Control, Uninfected ([1]; 6.34 × 10^-6 Molar): 94.34% | Percent of Control, Uninfected ([1]; 6.35 × 10^-7 Molar): 95.11% | Percent of Control, Uninfected ([1]; 6.36 × 10^-8 Molar): 83.94% | IC50 [1]: 151 µM | Percent of Control, Infected (HIV-1; 2.00 × 10^-4 Molar): 61.85% | Percent of Protection (HIV-1; 2.00 × 10^-4 Molar, 200 µM): 52.90% | Percent of Control, Infected (HIV-1; 2.00 × 10^-5 Molar): 112.68% | Percent of Protection (HIV-1; 2.00 × 10^-5 Molar, 20 µM): 115.65% | Percent of Control, Infected (HIV-1; 2.01 × 10^-6 Molar): 97.97% | Percent of Protection (HIV-1; 2.01 × 10^-6 Molar, 2.01 µM): 97.49% | Percent of Control, Infected (HIV-1; 2.01 × 10^-7 Molar): 14.10% | Percent of Protection (HIV-1; 2.01 × 10^-7 Molar, 0.201 µM): -6.05% | Percent of Control, Infected (HIV-1; 6.33 × 10^-5 Molar): 115.38% | Percent of Protection (HIV-1; 6.33 × 10^-5 Molar, 63.3 µM): 118.99% | Percent of Control, Infected (HIV-1; 6.34 × 10^-6 Molar): 105.65% | Percent of Protection (HIV-1; 6.34 × 10^-6 Molar, 6.34 µM): 106.98% | Percent of Control, Infected (HIV-1; 6.35 × 10^-7 Molar): 26.85% | Percent of Protection (HIV-1; 6.35 × 10^-7 Molar, 0.635 µM): 9.69% | Percent of Control, Infected (HIV-1; 6.36 × 10^-8 Molar): 17.12% | Percent of Protection (HIV-1; 6.36 × 10^-8 Molar, 0.0636 µM): -2.32% | EC50 (HIV-1): 1.08 µM | Conclusion (HIV-1): CONFIRMED ACTIVE
